This note sets out measurements from patent US6479534B1, “Indoline derivatives and method of treating obesity” (priority 2000, dated 2002).

One series has as its target T1, human 5-HT2B receptors (Homo sapiens, UniProt P41595).
T1 construct: expressed in transfected cells; host or cells: CHO cell line
As to the kind of experiment: Radioligand binding to 5-HT2B receptor ([3H]-5-HT, CHO cell line). The method, then: (§1) 1. Binding to Serotonin Receptors
(§2) The binding of compounds of formula (I) to serotonin receptors was determined in vitro by standard methods. The preparations were investigated in accordance with the assays given hereinafter.
Method (b): For the binding to the 5-HT2B receptor the 5-HT2B receptors were radiolabelled with [^3H]-5-HT. The affinity of the compounds for human 5-HT2B receptors in a CHO cell line was determined according to the procedure of K. Schmuck, C. Ullmer, P. Engels and H. Lubbert, FEBS Lett., 1994, 342, 85-90.

For a further series, the target named is T2, 5-HT2C receptor (Homo sapiens, UniProt P28335).
T2 construct: expressed in transfected cells; host or cells: CHO cell line
T2 sequence (P28335 33-458): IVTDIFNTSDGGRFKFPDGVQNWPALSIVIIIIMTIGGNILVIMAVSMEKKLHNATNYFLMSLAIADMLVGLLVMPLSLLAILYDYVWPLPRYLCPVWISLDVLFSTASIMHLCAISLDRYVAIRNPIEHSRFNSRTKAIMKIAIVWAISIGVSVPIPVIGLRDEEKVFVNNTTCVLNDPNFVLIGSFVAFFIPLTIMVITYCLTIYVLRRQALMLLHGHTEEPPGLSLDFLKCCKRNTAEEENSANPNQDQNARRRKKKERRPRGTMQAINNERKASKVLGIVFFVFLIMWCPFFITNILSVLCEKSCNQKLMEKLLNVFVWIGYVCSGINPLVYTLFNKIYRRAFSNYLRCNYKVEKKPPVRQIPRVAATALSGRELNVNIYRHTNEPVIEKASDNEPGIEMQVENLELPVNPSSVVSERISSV
Nature of the series: Radioligand binding to 5-HT2C receptor ([3H]-5-HT, CHO cell line). The settings on record: read-out: Ki (2C). The method, then:
as §1, §2
Method (a): For the binding to the 5-HT2C receptor the 5-HT2C receptors were radiolabelled with [^3H]-5-HT. The affinity of the compounds for 5-HT2C receptors in a CHO cell line was determined according to the procedure of D. Hoyer, G. Engel and H. O. Kalkman, European J. Pharmacol., 1985, 118, 13-23.

A further series deals with T3, h5-HT2C receptors (Homo sapiens, UniProt P28335).
T3 construct: expressed in transfected cells; host or cells: CHO cells
T3 sequence (P28335 33-458): T2 sequence (P28335 33-458)
As to the kind of experiment: Functional activity, FLIPR calcium assay, CHO cells expressing h5-HT2C. The series is classed as cell-based. The following applies: for h5-HT2C Relative Efficacy: maximum fluorescent signal relative to 10 μM 5-HT (defined as 100%). The protocol: (§3) The functional activity of compounds of formula (I) was assayed using a Fluorimetric Imaging Plate reader (FLIPR):
(§4) CHO cells expressing either the h5-HT2C or h5-HT2A receptors were counted and plated into standard 96 well microtitre plates before the day of testing to give a confluent monolayer. The following day the cells were dye-loaded with the calcium sensitive dye Fluo 3-AM by incubation with serum free culture maintenance media containing pluronic acid and Fluo 3-AM dissolved in DMSO at 37° C. in a CO2 incubator at 95% humidity for approximately 90 minutes. Unincorporated dye was removed by washing with Hanks balanced salt solution containing 20 mM HEPES and 2.5 mM probenecid (the assay buffer) using an automated cell washer to leave a total volume of 100 μl/well.
(§5) The drug (dissolved in 50 μL of assay buffer) was added at a rate of 70 μL/sec to each well of the FLIPR 96 well plate during fluorescence measurements. The measurements are taken at 1 sec intervals and the maximum fluorescent signal was measured (approx 10-15 secs after drug addition) and compared with the response produced by 10 μM 5-HT (defined as 100%) to which it is expressed as a percentage response (relative efficacy).Dose response curves were constructed using Graphpad Prism (Graph Software Inc.).

The target in the next series is T4, 5-HT2A receptor (Homo sapiens, UniProt P28223).
T4 construct: expressed in transfected cells; host or cells: CHO cell line
T4 sequence (P28223 whole entry): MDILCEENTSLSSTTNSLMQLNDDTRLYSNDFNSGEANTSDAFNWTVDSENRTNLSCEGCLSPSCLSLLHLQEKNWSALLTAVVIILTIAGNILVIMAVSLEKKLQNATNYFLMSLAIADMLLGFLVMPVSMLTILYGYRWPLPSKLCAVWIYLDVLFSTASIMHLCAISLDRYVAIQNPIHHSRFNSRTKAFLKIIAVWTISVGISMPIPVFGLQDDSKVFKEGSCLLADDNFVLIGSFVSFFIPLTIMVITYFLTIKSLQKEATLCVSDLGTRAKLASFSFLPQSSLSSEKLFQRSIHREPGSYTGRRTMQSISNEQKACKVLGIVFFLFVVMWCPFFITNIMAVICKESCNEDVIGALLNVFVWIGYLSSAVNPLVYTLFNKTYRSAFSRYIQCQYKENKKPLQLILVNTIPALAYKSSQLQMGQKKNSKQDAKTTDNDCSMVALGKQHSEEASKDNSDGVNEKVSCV
As to the kind of experiment: Radioligand binding to 5-HT2A receptor ([125I]-DOI, CHO cell line). The following applies: read-out: Ki (2A). The method, then:
as §1, §2
Method (c): For the binding to the 5-HT2A receptor the 5-HT2A receptors were radiolabelled with [^125I]-DOI. The affinity of the compounds for 5-HT2A receptors in a CHO cell line was determined according to the procedure of D. J. McKenna and S. J. Peroutka, J. Neurosci., 1989, 9/10, 3482-90.

The next series has as its target T5, h5-HT2A receptors (Homo sapiens, UniProt P28223).
T5 construct: expressed in transfected cells; host or cells: CHO cells
As to the kind of experiment: Functional activity, FLIPR calcium assay, CHO cells expressing h5-HT2A. Format: cell-based. The following applies: for h5-HT2A Relative Efficacy: maximum fluorescent signal relative to 10 μM 5-HT (defined as 100%). The protocol: as §3, §4, §5

The mark [1] stands for this setting: [3H]-5-HT, human receptor, CHO cell line, read-out: Ki (2B).
[2] abbreviates: FLIPR, Fluo 3-AM, CHO cells, read-out: h5-HT2C EC50.

Counter-ions that a name gives are not always drawn. Like-named read-outs stand apart in the source and are kept apart here.

T1 sequence (P41595 whole entry): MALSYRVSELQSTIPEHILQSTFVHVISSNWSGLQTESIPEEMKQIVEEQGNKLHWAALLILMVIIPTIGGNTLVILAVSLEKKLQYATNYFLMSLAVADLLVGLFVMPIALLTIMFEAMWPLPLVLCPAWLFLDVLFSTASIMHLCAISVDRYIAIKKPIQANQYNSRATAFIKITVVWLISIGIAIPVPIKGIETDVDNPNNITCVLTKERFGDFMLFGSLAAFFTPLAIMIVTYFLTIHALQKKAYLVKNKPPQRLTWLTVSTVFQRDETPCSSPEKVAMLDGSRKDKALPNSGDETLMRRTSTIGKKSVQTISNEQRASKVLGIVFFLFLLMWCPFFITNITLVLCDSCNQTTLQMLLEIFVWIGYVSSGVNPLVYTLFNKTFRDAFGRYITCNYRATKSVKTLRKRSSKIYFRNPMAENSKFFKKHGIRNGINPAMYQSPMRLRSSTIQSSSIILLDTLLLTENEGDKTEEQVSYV
T5 sequence (P28223 whole entry): as the sequence (P28223 whole entry) above

Regarding `COc1c(F)ccc2c1C1CCCC1N2CC(C)N` (mixture of isomers) [Example 20, (2′S)-[1-[4-(7-Fluoro-1,2,3,3a,4,8b-hexahydro-8-methoxycyclopent[b]indolyl)]-2-propylamine fumarate], the inhibition constant Ki was determined as 367 nM at human 5-HT2B receptors, 318 nM on 5-HT2C receptor and 481 nM at 5-HT2A receptor. Moreover, the EC50 was determined as 464 nM at h5-HT2C receptors and 5490 nM on h5-HT2A receptors (FLIPR, Fluo 3-AM, CHO cells). Also, on h5-HT2C receptors, the “h5-HT2C Relative Efficacy” value is 62%. On h5-HT2A receptors, the “h5-HT2A Relative Efficacy” value was determined as 17%.

For `NCCN1c2ccccc2[C@H]2CCC[C@H]21.O=C(O)/C=C/C(=O)O` (racemic), the melting point was 172 °C (dec.).

As for `C[C@H](N)CN1c2cc(Cl)c(F)cc2C2CCCC21` (single isomer, unassigned; isomer i) [Example 10, (2′S)-1-[4-(6-Chloro-7-fluoro-1,2,3,3a,4,8b-hexahydrocyclopent[b]indolyl)]-2-propylamine isomer I fumarate], the Ki was determined as 109 nM at human 5-HT2B receptors (setting [1]), 164 nM on 5-HT2C receptor and 983 nM on 5-HT2A receptor. On h5-HT2C receptors (setting [2]), the EC50 was 737 nM. Moreover, the “h5-HT2A Relative Efficacy” value on h5-HT2A receptors amounted to 20%.

As to `COc1cc2c(cc1F)C1CCCC1N2C[C@H](C)N` (single isomer, unassigned; isomer i) [Example 19, (2′S)-1-[4-(7-Fluoro-1,2,3,3a,4,8b-hexahydro-6-methoxycyclopent[b]indolyl)]-2-propylamine isomer I 0.7 fumarate], the inhibition constant (Ki) at human 5-HT2B receptors came to 513 nM; on 5-HT2C receptor it was 88 nM; on 5-HT2A receptor it was 1160 nM. On h5-HT2C receptors, the concentration giving a half-maximal response (EC50) turned out to be 391 nM. Further, the “h5-HT2C Relative Efficacy” value on h5-HT2C receptors was 84%. Further, the “h5-HT2A Relative Efficacy” value on h5-HT2A receptors is 0%.

For `C[C@H](N)CN1c2cc(Cl)ccc2[C@@H]2CCC[C@@H]21` [Example 2, (2′S, 3aS, 8b5)-[1-[4-(6-Chloro-1,2,3,3a,4,8b-hexahydrocyclopent[b]indolyl)]-2-propylamine hydrochloride], the figures for the Ki on human 5-HT2B receptors (setting [1]), on 5-HT2C receptor and at 5-HT2A receptor were 302 nM, 133 nM and 726 nM, respectively. Further, on h5-HT2C receptors (setting [2]), the EC50 was 585 nM. The “h5-HT2A Relative Efficacy” value at h5-HT2A receptors amounted to 7%.
